# Data published in US20230053540A1, “TREATMENT OF LIVER INJURY” (Massachusetts Institute of Technology, priority 2019, published 2023).
# Test system: hepatocytes
# Assay: Seq-Well scRNA-Seq of hepatocytes after APAP overdose (signature scores, DEG vs untreated)
# Type: in vivo, mouse
# Conditions: APAP vs. UT
structure (smiles),measurement,value
"CC(=O)Nc1ccc(O)cc1 [APAP, acetaminophen]",Hmgcs2 avg_logFC,0.3105
same,Hmgcs2 pct.1,0.974
same,Hmox1 avg_logFC,0.3298
same,Hmox1 pct.1,0.108
same,Hnf4a avg_logFC,0.4538
same,Hnf4a pct.1,0.876
same,Hp avg_logFC,0.2604
same,Hp pct.1,0.998
same,Hrg avg_logFC,0.321
same,Hrg pct.1,0.88
same,Hsd3b5 avg_logFC,−0.4712
same,Hsd3b5 pct.1,0.367
same,Hsd17b13 avg_logFC,0.4437
same,Hsd17b13 pct.1,0.798
same,Hspa5 avg_logFC,0.4048
same,Hspa5 pct.1,0.971
same,Hyou1 avg_logFC,0.3658
same,Hyou1 pct.1,0.561
same,Igfbp4 avg_logFC,0.3148
same,Igfbp4 pct.1,0.919
same,Iigp1 avg_logFC,0.3448
same,Iigp1 pct.1,0.851
same,Il1r1 avg_logFC,0.3633
same,Il1r1 pct.1,0.39
same,Insig1 avg_logFC,0.2541
same,Insig1 pct.1,0.597
same,Itih2 avg_logFC,0.2682
same,Itih2 pct.1,0.942
same,Kif1b avg_logFC,0.264
same,Kif1b pct.1,0.629
same,Krt18 avg_logFC,0.3307
same,Krt18 pct.1,0.72
same,Lars2 avg_logFC,1.069
same,Lars2 pct.1,0.997
same,Lifr avg_logFC,−0.3532
same,Lifr pct.1,0.608
same,Lipa avg_logFC,0.2577
same,Lipa pct.1,0.73
same,Lpgat1 avg_logFC,0.3539
same,Lpgat1 pct.1,0.693
same,Lpin2 avg_logFC,0.3984
same,Lpin2 pct.1,0.79
same,Lrg1 avg_logFC,0.3478
same,Lrg1 pct.1,0.861
same,Lrrc58 avg_logFC,0.2998
same,Lrrc58 pct.1,0.542
same,Man2a1 avg_logFC,0.3404
same,Man2a1 pct.1,0.742
same,Mat1a avg_logFC,0.75
same,Mat1a pct.1,0.983
same,Mbnl1 avg_logFC,0.251
same,Mbnl1 pct.1,0.511
same,Mfsd2a avg_logFC,0.4484
same,Mfsd2a pct.1,0.413
same,Mia3 avg_logFC,0.2557
same,Mia3 pct.1,0.749
same,Mt1 avg_logFC,0.8909
same,Mt1 pct.1,0.701
same,Mt2 avg_logFC,0.6697
same,Mt2 pct.1,0.518
same,Mup3 avg_logFC,−0.5425
same,Mup3 pct.1,0.999
same,Mup4 avg_logFC,−1.001
same,Mup4 pct.1,0.716
same,Mup5 avg_logFC,−1.342
same,Mup5 pct.1,0.541
same,Mup6 avg_logFC,−1.882
same,Mup6 pct.1,0.804
same,Mup7 avg_logFC,−0.6015
same,Mup7 pct.1,0.937
same,Mup8 avg_logFC,−0.7268
same,Mup8 pct.1,0.13
same,Mup9 avg_logFC,−1.914
same,Mup9 pct.1,0.594
same,Mup11 avg_logFC,−1.728
same,Mup11 pct.1,0.84
same,Mup12 avg_logFC,−0.3713
same,Mup12 pct.1,0.665
same,Mup15 avg_logFC,−1.26
same,Mup15 pct.1,0.166
same,Mup16 avg_logFC,−1.125
same,Mup16 pct.1,0.594
same,Mup17 avg_logFC,−2.017
same,Mup17 pct.1,0.947
same,Mup18 avg_logFC,−1.639
same,Mup18 pct.1,0.838
same,Mup19 avg_logFC,−1.786
same,Mup19 pct.1,0.916
same,Mup21 avg_logFC,−0.8723
same,Mup21 pct.1,0.702
same,Myh9 avg_logFC,0.4507
same,Myh9 pct.1,0.531
same,Ndrg2 avg_logFC,0.2845
same,Ndrg2 pct.1,0.956
same,Ndufa4 avg_logFC,−0.2617
same,Ndufa4 pct.1,0.851
same,Ndufs6 avg_logFC,−0.2721
same,Ndufs6 pct.1,0.678
same,Nudt7 avg_logFC,−0.6192
same,Nudt7 pct.1,0.691
same,P4hb avg_logFC,0.2586
same,P4hb pct.1,0.958
same,Pabpc1 avg_logFC,0.3735
same,Pabpc1 pct.1,0.75
same,Picalm avg_logFC,0.2666
same,Picalm pct.1,0.558
same,Pigr avg_logFC,0.2747
same,Pigr pct.1,0.952
same,Plin2 avg_logFC,0.3714
same,Plin2 pct.1,0.799
same,Prdx1 avg_logFC,−0.3499
same,Prdx1 pct.1,0.878
same,Prdx4 avg_logFC,−0.2905
same,Prdx4 pct.1,0.55
same,Pten avg_logFC,0.265
same,Pten pct.1,0.645
same,Ranbp2 avg_logFC,0.2567
same,Ranbp2 pct.1,0.555
same,Reep6 avg_logFC,0.2892
same,Reep6 pct.1,0.837
same,Retsat avg_logFC,0.4126
same,Retsat pct.1,0.87
same,Rora avg_logFC,0.2853
same,Rora pct.1,0.547
same,Rpl36al avg_logFC,−0.2702
same,Rpl36al pct.1,0.495
same,Rps15 avg_logFC,−0.2722
same,Rps15 pct.1,0.49
same,S100a9 avg_logFC,0.3176
same,S100a9 pct.1,0.058
same,Sdhc avg_logFC,0.2605
same,Sdhc pct.1,0.738
same,Sec61a1 avg_logFC,0.2648
same,Sec61a1 pct.1,0.642
same,Selenbp2 avg_logFC,−0.8304
same,Selenbp2 pct.1,0.751
same,Sephs2 avg_logFC,0.4286
same,Sephs2 pct.1,0.865
same,Sepp1 avg_logFC,0.3455
same,Sepp1 pct.1,1
same,Serpina1a avg_logFC,−0.3347
same,Serpina1a pct.1,0.96
same,Serpina1e avg_logFC,−0.4681
same,Serpina1e pct.1,0.99
same,Serpina3m avg_logFC,0.4597
same,Serpina3m pct.1,0.836
same,Serpina3n avg_logFC,0.4496
same,Serpina3n pct.1,0.76
same,Serpina12 avg_logFC,−0.279
same,Serpina12 pct.1,0.362
same,Sfxn1 avg_logFC,0.2624
same,Sfxn1 pct.1,0.636
same,Sh3glb1 avg_logFC,0.2521
same,Sh3glb1 pct.1,0.47
same,Slc4a4 avg_logFC,0.2827
same,Slc4a4 pct.1,0.558
same,Slc25a47 avg_logFC,0.3096
same,Slc25a47 pct.1,0.927
same,Slc39a14 avg_logFC,0.356
same,Slc39a14 pct.1,0.552
same,Slc40a1 avg_logFC,0.2768
same,Slc40a1 pct.1,0.517
same,Slco1a4 avg_logFC,0.3826
same,Slco1a4 pct.1,0.484
same,Snord118 avg_logFC,0.4707
same,Snord118 pct.1,0.531
same,Srxn1 avg_logFC,0.564
same,Srxn1 pct.1,0.369
same,Ssr3 avg_logFC,0.2529
same,Ssr3 pct.1,0.732
same,St3gal5 avg_logFC,0.3876
same,St3gal5 pct.1,0.695
same,Sult1a1 avg_logFC,0.3652
same,Sult1a1 pct.1,0.799
same,Tgoln1 avg_logFC,0.2677
same,Tgoln1 pct.1,0.713
same,Tm4sf4 avg_logFC,0.276
same,Tm4sf4 pct.1,0.493
same,Tmed5 avg_logFC,0.3027
same,Tmed5 pct.1,0.689
same,Tmem205 avg_logFC,−0.2953
same,Tmem205 pct.1,0.877
same,Tnfrsf12a avg_logFC,0.2588
same,Tnfrsf12a pct.1,0.193
same,Trp53inp1 avg_logFC,0.3977
same,Trp53inp1 pct.1,0.526
same,Ttpa avg_logFC,0.3932
same,Ttpa pct.1,0.916
same,Txnrd1 pct.1,0.64
same,Uroc1 avg_logFC,0.3135
same,Uroc1 pct.1,0.74
same,Usp9x avg_logFC,0.2541
same,Usp9x pct.1,0.503
same,Wbp1l avg_logFC,0.3662
same,Wbp1l pct.1,0.768
same,Zfp91 avg_logFC,0.2619
same,Zfp91 pct.1,0.666
same,mmu-mir-6240 avg_logFC,0.3395
same,mmu-mir-6240 pct.1,0.22
same,mt-Co1 avg_logFC,−0.9219
same,mt-Co1 pct.1,0.977
same,mt-Co2 avg_logFC,−1.078
